In patent US20070105158A1, “Recombined cell system for deorphanizing g protein-coupled receptors” (Deutsches Institut fur Ernahrungsforschung-Stiftun, priority 2003, published 2007):
Changes are numbered by the printed parent chain. Where “and” joins values, the source holds several entries; their conditions need not be identical. Identical values can stand only once. Like-named read-outs stand apart in the source and are kept apart here. One block for each compound: values may come before it.

Tests used:
[1] = biological target: T1, rho-tag(39)-Olfr49 (Mus musculus, UniProt Q9Z1V0); test: Odorant-induced Ca2+ influx (FLIPR) in forskolin-pre-treated HeLa-Cx43/CNGA2 cells expressing rho-tag(39)-Olfr49; format: cell-based
T1 construct: PCR-amplified the full-length coding regions of mouse Olfr49 (1-C6, NM010991); rho-tag(39): first 39 amino acids of bovine rhodopsin (N); expressed in transfected cells
T1 sequence (Q9Z1V0 1-313): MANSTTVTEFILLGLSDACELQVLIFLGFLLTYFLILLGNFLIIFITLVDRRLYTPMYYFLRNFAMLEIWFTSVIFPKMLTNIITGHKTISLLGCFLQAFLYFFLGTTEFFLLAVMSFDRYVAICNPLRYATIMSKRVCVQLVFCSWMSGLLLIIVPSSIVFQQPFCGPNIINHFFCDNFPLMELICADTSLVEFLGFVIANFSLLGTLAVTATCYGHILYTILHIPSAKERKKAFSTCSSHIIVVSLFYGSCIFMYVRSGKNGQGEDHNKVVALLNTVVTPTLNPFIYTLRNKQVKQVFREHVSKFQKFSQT

[2] = biological target: T1, rho-tag(39)-Olfr49; format: cell-based; details: for Effect of pre-treatment on (−)citronellal-induced cAMP production: (−)citronellal 10 μM, thapsigargin 1 μM
Procedure: After 40 hours, the cells were pre-incubated with IBMX (100 μM, 30 min) and exposed to (−)citronellal or isoproterenol (2 min). The pre-stimulation with forskolin was generally omitted.
The inventors tested the possibility to follow an increase in cGMP by transfecting of the rat particular guanylyl cyclase type B (GC-B) into HeLa-Cx43/CNGA2 cells, for which the C type natriuretic peptide (CNP) is the known agonist (Lucas et al., 2000). […] The quantitative comparison of the relative potencies of the agonists by determining of their EC50 values is a standard method in the GPCR and agonist-classification.

[3] = biological target: T2, rho-tag(39)-Olfr43 (Mus musculus, UniProt Q7TRX1)
T2 sequence (Q7TRX1 1-313): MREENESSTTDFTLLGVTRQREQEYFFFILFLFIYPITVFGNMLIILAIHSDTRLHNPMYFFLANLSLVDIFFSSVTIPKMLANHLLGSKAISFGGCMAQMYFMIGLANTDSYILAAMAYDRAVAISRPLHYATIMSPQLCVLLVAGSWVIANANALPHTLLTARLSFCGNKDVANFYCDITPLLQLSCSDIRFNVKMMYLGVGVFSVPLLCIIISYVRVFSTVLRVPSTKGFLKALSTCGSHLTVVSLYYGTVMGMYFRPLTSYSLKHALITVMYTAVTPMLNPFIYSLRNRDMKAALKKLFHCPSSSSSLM
From the text: (§1) In in situ RNA hybridisation-experiments, the inventors examined the gene expression of Olfr41, Olfr43, Olfr49, MOR261-10, MOR267-1, and Ors6 in OSN of the mouse OE.

[4] = biological target: T3, CNGA2 channel (Bos taurus, UniProt Q03041); test: Inhibition of db-cAMP-activated CNGA2-dependent Ca2+ influx into HeLa-Cx43/CNGA2 cells; format: cell-based, bovine; details: for Block of db-cAMP-induced Ca2+ influx by CNGA2: n=2
T3 construct: expressed in transfected cells
T3 sequence (Q03041 1-663): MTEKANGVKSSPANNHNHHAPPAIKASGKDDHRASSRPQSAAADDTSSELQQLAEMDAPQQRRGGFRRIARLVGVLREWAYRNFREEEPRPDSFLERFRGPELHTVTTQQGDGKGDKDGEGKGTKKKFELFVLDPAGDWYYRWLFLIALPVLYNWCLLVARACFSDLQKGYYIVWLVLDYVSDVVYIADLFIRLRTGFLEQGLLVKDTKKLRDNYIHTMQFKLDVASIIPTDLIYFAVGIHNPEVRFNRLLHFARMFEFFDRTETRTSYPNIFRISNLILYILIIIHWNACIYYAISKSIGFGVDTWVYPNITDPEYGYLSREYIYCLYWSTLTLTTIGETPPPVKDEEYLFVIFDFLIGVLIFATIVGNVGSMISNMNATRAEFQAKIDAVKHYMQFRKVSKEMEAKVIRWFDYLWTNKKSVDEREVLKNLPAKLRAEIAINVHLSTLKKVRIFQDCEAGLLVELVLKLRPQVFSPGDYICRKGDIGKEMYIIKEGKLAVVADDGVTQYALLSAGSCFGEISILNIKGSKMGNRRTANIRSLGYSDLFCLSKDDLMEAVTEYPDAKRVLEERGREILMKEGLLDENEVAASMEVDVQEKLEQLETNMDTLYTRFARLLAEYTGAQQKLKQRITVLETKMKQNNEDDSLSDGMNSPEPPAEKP

[5] = biological target: T4, Olfr43 (Mus musculus, UniProt Q7TRX1); details: 1 μM, chimera A1 and rho-tag(39)-full length OR, n=3
T4 sequence (Q7TRX1 1-313): T2 sequence (Q7TRX1 1-313)

[6] = biological target: T5, rho-tag(39)-OR1A1 (Homo sapiens, UniProt Q9P1Q5)
T5 sequence (Q9P1Q5 1-309): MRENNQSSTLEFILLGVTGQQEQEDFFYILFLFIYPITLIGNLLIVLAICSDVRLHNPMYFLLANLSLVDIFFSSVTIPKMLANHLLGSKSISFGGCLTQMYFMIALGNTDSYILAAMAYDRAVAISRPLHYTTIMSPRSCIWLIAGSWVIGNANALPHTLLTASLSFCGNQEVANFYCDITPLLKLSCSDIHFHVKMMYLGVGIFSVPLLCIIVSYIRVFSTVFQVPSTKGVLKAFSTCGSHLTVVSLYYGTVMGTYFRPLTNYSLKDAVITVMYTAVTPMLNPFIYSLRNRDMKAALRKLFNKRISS
From the text: as §1

[7] = biological target: T6, mOR267-1 (Mus musculus, UniProt Q8VBW9); details: chimera F2 and rho-tag(39)-full length OR, n=3
T6 sequence (Q8VBW9 1-316): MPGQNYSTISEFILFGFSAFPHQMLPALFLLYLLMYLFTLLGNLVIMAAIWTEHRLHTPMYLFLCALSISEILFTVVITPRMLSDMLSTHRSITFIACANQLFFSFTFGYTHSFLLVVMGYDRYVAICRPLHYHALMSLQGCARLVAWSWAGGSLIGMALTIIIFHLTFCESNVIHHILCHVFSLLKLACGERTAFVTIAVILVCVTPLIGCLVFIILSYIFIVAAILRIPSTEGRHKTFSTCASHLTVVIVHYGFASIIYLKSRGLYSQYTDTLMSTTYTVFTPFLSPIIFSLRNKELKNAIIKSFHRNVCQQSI

[8] = biological target: T7, Olfr49 (Mus musculus, UniProt Q9Z1V0); details: n=3
T7 sequence (Q9Z1V0 1-313): T1 sequence (Q9Z1V0 1-313)

[9] = test system: rho-tag(20)-M4 chimeric mouse ORs; format: cell-based; details: for Responding OR chimeras: 93 OR chimeras
[10] = biological target: T8, rho-tag(39)-LOC331758 (Mus musculus, UniProt Q7TRX2)
T8 sequence (Q7TRX2 1-313): T2 sequence (Q7TRX1 1-313) with T10I, G106S, A108G, P306H
From the text: as §1

[11] = test system: mOR261-10; details: 10 μM, chimera H1 and rho-tag(39)-full length OR, n=3
[12] = biological target: T9, homomeric olfactory CNGA2 channel (Rattus norvegicus, UniProt Q00195); details: Finn et al., 1998; cited from earlier work
T9 construct: host or cells: HEK293 (in the cited work)
T9 sequence (Q00195 1-664): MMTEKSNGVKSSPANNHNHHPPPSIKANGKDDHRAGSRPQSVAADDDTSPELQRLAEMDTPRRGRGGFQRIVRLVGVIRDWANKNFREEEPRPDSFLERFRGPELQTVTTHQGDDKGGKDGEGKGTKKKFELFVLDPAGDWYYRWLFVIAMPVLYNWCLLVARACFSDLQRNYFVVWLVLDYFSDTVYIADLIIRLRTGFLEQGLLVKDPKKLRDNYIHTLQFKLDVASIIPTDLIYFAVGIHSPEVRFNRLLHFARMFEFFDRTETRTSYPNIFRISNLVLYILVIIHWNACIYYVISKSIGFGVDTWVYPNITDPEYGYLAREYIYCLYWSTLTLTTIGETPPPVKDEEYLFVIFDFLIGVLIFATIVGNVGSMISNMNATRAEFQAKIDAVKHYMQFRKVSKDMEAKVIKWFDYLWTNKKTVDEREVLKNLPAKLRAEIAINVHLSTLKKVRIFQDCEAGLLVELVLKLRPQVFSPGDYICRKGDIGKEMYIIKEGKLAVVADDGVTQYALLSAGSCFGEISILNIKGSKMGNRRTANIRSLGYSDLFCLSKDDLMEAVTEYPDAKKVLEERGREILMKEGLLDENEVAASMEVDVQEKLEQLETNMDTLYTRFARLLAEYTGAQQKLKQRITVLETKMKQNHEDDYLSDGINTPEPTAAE

[13] = test system: rho-tag(39)-Olfr41; format: cell-based, mouse; details: 10 μM, thapsigargin pre-treated cells
[14] = test system: rho-tag(39)-Ors6; format: cell-based, mouse; details: 10 μM, thapsigargin pre-treated cells
[15] = EC50 for odorant-induced Ca2+ influx, stably expressed rho-tag(39)-Olfr49, forskolin-pre-treated

Structure (SMILES): CC(C)=CCCC(C)CC=O (single isomer, unassigned; (+)) [(+)citronellal]
- EC50 [1, 15]: 2.6 ± 0.4 µM

Structure (SMILES): CC(C)=CCCC(C)CC=O (single isomer, unassigned; (-)) [(−)citronellal]
- EC50 ([2]; EC50 for (−)citronellal-induced cAMP production, rho-tag(39)-Olfr49 stable cell line, n=2): 0.4 µM and 0.49 µM
- EC50 [3]: 2.1 ± 0.2 µM
- IC50 ([4]; IC50 for block of db-cAMP-induced Ca2+ influx by CNGA2, db-cAMP-pre-treated HeLa-Cx43/CNGA2 cells, FLIPR): 108 µM and 132 µM
- EC50 ([1]; EC50 for (−)citronellal-induced Ca2+ influx, transiently transfected rho-tag(39)-Olfr49, forskolin-pre-treated): 3.9 µM and 4 µM
- EC50 [1, 15]: 2.1 µM
- Response in single cell Ca2+ imaging [5]: selectively responded
- EC50 [6]: 2.2 ± 0.4 µM
- Response in single cell Ca2+ imaging ([7]; 1 μM): selectively responded
- Response in single cell Ca2+ imaging ([8]; 1 μM): selectively responded
- Responding OR chimeras ([9]; odorant 1 μM): 3%
- Responding OR chimeras ([9]; odorant 3 μM): 43%
- Percentage of responding ORs ([9]; subgroup of 67 OR chimeras, odorant 1 μM, n=1): 9%
- EC50 [10]: 3.2 ± 0.8 µM

Structure (SMILES): CC(C)=CCCC(C)CCO (stereo not drawn) [beta-citronellol]
- Response in single cell Ca2+ imaging [11]: selectively responded
- Block of db-cAMP-induced Ca2+ influx by CNGA2 ([4]; at up to 3 mM): did not block
- EC50 [1, 15]: 32.8 ± 2.7 µM
- Response in single cell Ca2+ imaging ([7]; 10 μM): selectively responded
- Response in single cell Ca2+ imaging ([8]; 10 μM): selectively responded
- Responding OR chimeras ([9]; odorant 10 μM): 22%

Structure (SMILES): Nc1nc2c(ncn2[C@@H]2O[C@@H]3COP(=O)(O)O[C@H]3[C@H]2O)c(=O)[nH]1 [cGMP]
- EC50 [12]: 3 µM
- EC50 for cGMP lower than the one for cAMP [12]: 20 fold

- Block of db-cAMP-induced Ca2+ influx by CNGA2 ([4]; at up to 300 μM): did not block
Structure (SMILES): CC(C)=CCCC(C)CC(=O)O (centres unmarked) [citronellic acid]
- Response of the 93 OR chimeras ([9]; up to 10 μM, n=2): None of the 93 OR chimeras responded

- Block of db-cAMP-induced Ca2+ influx by CNGA2 ([4]; at up to 100 μM): did not block
- EC50 ([1]; stably expressed rho-tag(39)-Olfr49, forskolin-pre-treated, read-out: EC50 for odorant-induced Ca2+ influx): 6 ± 1 µM
Structure (SMILES): CCCCCCC=O [heptanal]
- Ca2+ influx [13]: triggered the Ca2+ influx

Structure (SMILES): O=C(O)CCCCCCCC(=O)O [nonandione acid]
- Ca2+ influx [14]: induced a Ca2+ influx

Structure (SMILES): CCCCCCCC=O [octanal]
- Block of db-cAMP-induced Ca2+ influx by CNGA2 ([4]; at up to 100 μM): did not block
- EC50 [1, 15]: 3.7 ± 0.1 µM

Structure (SMILES): C/C=C(/C)C(=O)O[C@H]1C(C)=C2[C@H]([C@@H]1OC(=O)CCCCCCC)[C@@](C)(OC(C)=O)C[C@H](OC(=O)CCC)[C@@]1(O)[C@H]2OC(=O)[C@@]1(C)O [thapsigargin]
- Effect of pre-treatment on (−)citronellal-induced cAMP production ([2]; cells transfected with hG-alpha-olf): reduced
- Effect of pre-treatment on (−)citronellal-induced cAMP production ([2]; cells without hG-alpha-olf, compared to cells without pre-treatment, forskolin 2.5 μM): significantly increased
